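These data come from cells grown in 96-well plates and exposed to compound for 48 hours at five concentrations. Here, GI50 denotes the concentration required for 50% inhibition of growth. At the TGI there is no net growth.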
Assays:
Experiment in all cases: NCI-60 cell line screen, 48 h; in the data active means GI50 below about 0.43 µM; inactive means the rest
U251 CNS = system: U251 CNS
UO-31 renal = system: UO-31 renal
SR leukemia = system: SR leukemia
SN12C renal = system: SN12C renal
CCRF-CEM leukemia = system: CCRF-CEM leukemia
SK-MEL-5 melanoma = system: SK-MEL-5 melanoma
SNB-75 CNS = system: SNB-75 CNS
K-562 leukemia = system: K-562 leukemia
NCI-H226 lung = system: NCI-H226 lung
HCT-15 colon = system: HCT-15 colon
DU-145 prostate = system: DU-145 prostate
EKVX NSCLC = system: EKVX NSCLC
UACC-257 melanoma = system: UACC-257 melanoma
IGROV1 ovarian = system: IGROV1 ovarian
KM12 colon = system: KM12 colon
UACC-62 melanoma = system: UACC-62 melanoma
SK-MEL-2 melanoma = system: SK-MEL-2 melanoma
SF-295 CNS = system: SF-295 CNS
RPMI-8226 leukemia = system: RPMI-8226 leukemia
HCT-116 colon = system: HCT-116 colon
MALME-3M melanoma = system: MALME-3M melanoma
SNB-19 CNS = system: SNB-19 CNS
CAKI-1 renal = system: CAKI-1 renal
MDA-MB-231 breast = system: MDA-MB-231 breast
NCI-H522 lung = system: NCI-H522 lung
HOP-62 NSCLC = system: HOP-62 NSCLC
SF-539 CNS = system: SF-539 CNS
SK-MEL-28 melanoma = system: SK-MEL-28 melanoma
OVCAR-8 ovarian = system: OVCAR-8 ovarian
OVCAR-5 ovarian = system: OVCAR-5 ovarian
A498 renal = system: A498 renal
MDA-MB-435 = system: MDA-MB-435
MOLT-4 leukemia = system: MOLT-4 leukemia
SK-OV-3 ovarian = system: SK-OV-3 ovarian
HOP-92 NSCLC = system: HOP-92 NSCLC
ACHN renal = system: ACHN renal
NCI-H460 lung = system: NCI-H460 lung
NCI/ADR-RES ovarian = system: NCI/ADR-RES ovarian
OVCAR-3 ovarian = system: OVCAR-3 ovarian
LOX IMVI melanoma = system: LOX IMVI melanoma
TK-10 renal = system: TK-10 renal
SF-268 CNS = system: SF-268 CNS
MCF7 breast = system: MCF7 breast
T-47D breast = system: T-47D breast
M14 melanoma = system: M14 melanoma
BT-549 breast = system: BT-549 breast
PC-3 prostate = system: PC-3 prostate
SW-620 colon = system: SW-620 colon
HCC-2998 colon = system: HCC-2998 colon
786-0 renal = system: 786-0 renal
HT29 colon = system: HT29 colon
OVCAR-4 ovarian = system: OVCAR-4 ovarian
A549 NSCLC = system: A549 NSCLC
COLO 205 colon = system: COLO 205 colon
HS 578T breast = system: HS 578T breast
RXF 393 renal = system: RXF 393 renal
NCI-H23 lung = system: NCI-H23 lung
HL-60(TB) leukemia = system: HL-60(TB) leukemia

CS(=O)(=O)c1ccc2c(c1)c1c(n2S(=O)(=O)c2ccc(Cl)cc2)CCCC1
3290 nM: TGI (MDA-MB-435)
> 100000 nM: TGI (U251 CNS) | TGI (UO-31 renal) | TGI (SR leukemia) | TGI (SN12C renal) | TGI (CCRF-CEM leukemia) | TGI (SK-MEL-5 melanoma) | TGI (K-562 leukemia) | TGI (NCI-H226 lung) | TGI (HCT-15 colon) | TGI (DU-145 prostate) | TGI (EKVX NSCLC) | TGI (UACC-257 melanoma) | TGI (IGROV1 ovarian) | TGI (KM12 colon) | TGI (UACC-62 melanoma) | TGI (SF-295 CNS) | TGI (RPMI-8226 leukemia) | TGI (HCT-116 colon) | TGI (MALME-3M melanoma) | TGI (SNB-19 CNS) | TGI (CAKI-1 renal) | TGI (MDA-MB-231 breast) | TGI (HOP-62 NSCLC) | TGI (SF-539 CNS) | TGI (SK-MEL-28 melanoma) | TGI (OVCAR-8 ovarian) | TGI (OVCAR-5 ovarian) | TGI (A498 renal) | TGI (MOLT-4 leukemia) | TGI (SK-OV-3 ovarian) | TGI (HOP-92 NSCLC) | TGI (ACHN renal) | TGI (NCI-H460 lung) | TGI (NCI/ADR-RES ovarian) | TGI (OVCAR-3 ovarian) | TGI (LOX IMVI melanoma) | TGI (TK-10 renal) | TGI (SF-268 CNS) | TGI (MCF7 breast) | TGI (T-47D breast) | TGI (M14 melanoma) | TGI (BT-549 breast) | TGI (PC-3 prostate) | TGI (SW-620 colon) | TGI (HCC-2998 colon) | TGI (786-0 renal)
6150 nM: TGI (SNB-75 CNS)
3390 nM: TGI (NCI-H522 lung)
7440 nM: TGI (SK-MEL-2 melanoma)
inactive: GI50 (U251 CNS) 4680 nM | GI50 (UO-31 renal) 3820 nM | GI50 (SR leukemia) 594 nM | GI50 (SN12C renal) 5190 nM | GI50 (CCRF-CEM leukemia) 3160 nM | GI50 (SK-MEL-5 melanoma) 3920 nM | GI50 (SNB-75 CNS) 1420 nM | GI50 (K-562 leukemia) 706 nM | GI50 (NCI-H226 lung) 3220 nM | GI50 (HCT-15 colon) 1930 nM | GI50 (DU-145 prostate) 4300 nM | GI50 (EKVX NSCLC) 5550 nM | GI50 (UACC-257 melanoma) 10300 nM | GI50 (IGROV1 ovarian) 5240 nM | GI50 (KM12 colon) 3160 nM | GI50 (UACC-62 melanoma) 3140 nM | GI50 (SK-MEL-2 melanoma) 2150 nM | GI50 (SF-295 CNS) 4080 nM | GI50 (RPMI-8226 leukemia) 3720 nM | GI50 (HCT-116 colon) 3500 nM | GI50 (MALME-3M melanoma) 7110 nM | GI50 (SNB-19 CNS) 5540 nM | GI50 (CAKI-1 renal) 3120 nM | GI50 (MDA-MB-231 breast) 4250 nM | GI50 (NCI-H522 lung) 1080 nM | GI50 (HOP-62 NSCLC) 4300 nM | GI50 (SF-539 CNS) 3150 nM | GI50 (SK-MEL-28 melanoma) 34800 nM | GI50 (OVCAR-8 ovarian) 4110 nM | GI50 (OVCAR-5 ovarian) 5370 nM | GI50 (A498 renal) > 100000 nM | GI50 (MDA-MB-435) 583 nM | GI50 (MOLT-4 leukemia) 4490 nM | GI50 (SK-OV-3 ovarian) 4950 nM | GI50 (HOP-92 NSCLC) 3040 nM | GI50 (ACHN renal) 7560 nM | GI50 (NCI-H460 lung) 3500 nM | GI50 (NCI/ADR-RES ovarian) 2330 nM | GI50 (OVCAR-3 ovarian) 3560 nM | GI50 (LOX IMVI melanoma) 4320 nM | GI50 (TK-10 renal) > 100000 nM | GI50 (SF-268 CNS) > 100000 nM | GI50 (MCF7 breast) 2610 nM | GI50 (T-47D breast) 3710 nM | GI50 (M14 melanoma) 3690 nM | GI50 (BT-549 breast) 5390 nM | GI50 (PC-3 prostate) 3420 nM | GI50 (SW-620 colon) 2820 nM | GI50 (HCC-2998 colon) 3570 nM | GI50 (786-0 renal) 4730 nM

O=C(Nc1cccc(Cl)c1)Nc1nc2ccc([N+](=O)[O-])cc2s1
1400 nM: TGI (BT-549 breast)
1690 nM: TGI (786-0 renal)
2520 nM: TGI (SN12C renal)
2540 nM: TGI (M14 melanoma)
3050 nM: TGI (MDA-MB-231 breast) | TGI (MCF7 breast)
1790 nM: TGI (UO-31 renal) | TGI (RXF 393 renal)
1750 nM: TGI (OVCAR-3 ovarian)
973 nM: TGI (A498 renal)
5490 nM: TGI (TK-10 renal)
2240 nM: TGI (CAKI-1 renal)
inactive: GI50 (U251 CNS) 452 nM | GI50 (SN12C renal) 447 nM | GI50 (HT29 colon) 2820 nM | GI50 (SNB-75 CNS) 539 nM | GI50 (NCI-H226 lung) 623 nM | GI50 (OVCAR-4 ovarian) 429 nM | GI50 (HCT-15 colon) 466 nM | GI50 (DU-145 prostate) 693 nM | GI50 (EKVX NSCLC) 558 nM | GI50 (UACC-257 melanoma) 532 nM | GI50 (IGROV1 ovarian) 617 nM | GI50 (KM12 colon) 466 nM | GI50 (SK-MEL-2 melanoma) 434 nM | GI50 (A549 NSCLC) 779 nM | GI50 (SF-295 CNS) 527 nM | GI50 (COLO 205 colon) 1260 nM | GI50 (SNB-19 CNS) 531 nM | GI50 (HS 578T breast) 675 nM | GI50 (CAKI-1 renal) 483 nM | GI50 (MDA-MB-231 breast) 676 nM | GI50 (HOP-62 NSCLC) 911 nM | GI50 (SF-539 CNS) 603 nM | GI50 (OVCAR-8 ovarian) 1120 nM | GI50 (OVCAR-5 ovarian) 1790 nM | GI50 (MDA-MB-435) 524 nM | GI50 (SK-OV-3 ovarian) 736 nM | GI50 (ACHN renal) 525 nM | GI50 (RXF 393 renal) 458 nM | GI50 (LOX IMVI melanoma) 436 nM | GI50 (TK-10 renal) 808 nM | GI50 (SF-268 CNS) 685 nM | GI50 (MCF7 breast) 452 nM | GI50 (M14 melanoma) 660 nM | GI50 (SW-620 colon) 490 nM | GI50 (HCC-2998 colon) 465 nM
3340 nM: TGI (HS 578T breast)
3170 nM: TGI (SNB-75 CNS)
3820 nM: TGI (CCRF-CEM leukemia)
3540 nM: TGI (EKVX NSCLC)
2030 nM: TGI (HCT-15 colon) | TGI (SK-MEL-2 melanoma)
2170 nM: TGI (SF-539 CNS)
2500 nM: TGI (NCI-H226 lung)
3880 nM: TGI (IGROV1 ovarian)
1100 nM: TGI (SK-MEL-5 melanoma)
1670 nM: TGI (SK-MEL-28 melanoma)
2840 nM: TGI (COLO 205 colon)
1420 nM: TGI (K-562 leukemia)
10700 nM: TGI (HT29 colon)
2210 nM: TGI (HCC-2998 colon)
2340 nM: TGI (MOLT-4 leukemia)
1820 nM: TGI (NCI/ADR-RES ovarian)
2390 nM: TGI (SW-620 colon)
3550 nM: TGI (U251 CNS) | TGI (HOP-62 NSCLC) | TGI (SF-268 CNS)
1970 nM: TGI (SF-295 CNS) | TGI (NCI-H460 lung)
454 nM: TGI (HOP-92 NSCLC)
1460 nM: TGI (UACC-62 melanoma)
8470 nM: TGI (DU-145 prostate)
2560 nM: TGI (ACHN renal)
6830 nM: TGI (OVCAR-5 ovarian)
989 nM: TGI (NCI-H23 lung)
1630 nM: TGI (MALME-3M melanoma) | TGI (LOX IMVI melanoma)
1910 nM: TGI (SR leukemia)
1190 nM: TGI (HCT-116 colon) | TGI (PC-3 prostate)
2120 nM: TGI (KM12 colon)
5170 nM: TGI (SK-OV-3 ovarian)
4280 nM: TGI (SNB-19 CNS)
active: GI50 (UO-31 renal) 388 nM | GI50 (SR leukemia) 350 nM | GI50 (CCRF-CEM leukemia) 375 nM | GI50 (SK-MEL-5 melanoma) 315 nM | GI50 (K-562 leukemia) 355 nM | GI50 (UACC-62 melanoma) 359 nM | GI50 (RPMI-8226 leukemia) 263 nM | GI50 (HCT-116 colon) 330 nM | GI50 (MALME-3M melanoma) 367 nM | GI50 (NCI-H522 lung) 331 nM | GI50 (SK-MEL-28 melanoma) 423 nM | GI50 (A498 renal) 244 nM | GI50 (MOLT-4 leukemia) 375 nM | GI50 (HOP-92 NSCLC) 145 nM | GI50 (NCI-H460 lung) 398 nM | GI50 (NCI/ADR-RES ovarian) 403 nM | GI50 (OVCAR-3 ovarian) 402 nM | GI50 (T-47D breast) 307 nM | GI50 (NCI-H23 lung) 304 nM | GI50 (HL-60(TB) leukemia) 365 nM | GI50 (BT-549 breast) 415 nM | GI50 (PC-3 prostate) 317 nM | GI50 (786-0 renal) 409 nM
2010 nM: TGI (NCI-H522 lung)
1850 nM: TGI (T-47D breast)
3490 nM: TGI (UACC-257 melanoma)
2930 nM: TGI (OVCAR-4 ovarian)
7460 nM: TGI (A549 NSCLC)
1510 nM: TGI (HL-60(TB) leukemia)
632 nM: TGI (RPMI-8226 leukemia)
11200 nM: TGI (OVCAR-8 ovarian)
2290 nM: TGI (MDA-MB-435)

Source: PubChem BioAssay (NCI)
